Test results: ChEMBL document CHEMBL1201862, “PubChem BioAssay data set” (2004)
Calls of active or inactive are those of the source.

How the values were obtained:
[1] = Luminescence Cell-Based/Microorganism Confirmation at Dose of Inhibitors of Trypanosoma cruzi Infection. [Related pubchem assays: 1885, 1968 ]; format: functional
[2] = inhibitors of intracellular T. cruzi replication, confirmation, NIH3T3 host cells, beta-gal luminescence (AID 2044); format: functional, cell-based;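 note: intracellular parasites grown in NIH/3T3 mouse fibroblasts as host cells; luminescent beta-galactosidase reporter signal from transgenic T. cruzi replicating inside host cells; inhibitors lower the luminescence signal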
[3] = Luminescence Cell-Based Secondary HTS screen to identify cytotoxic compounds of NIH3T3 cells. [Related pubchem assays: 1885, 1968 ]; format: functional
[4] = cytotoxicity toward NIH3T3 fibroblasts, dose response, counter-screen, cell-based, ATP luminescence, mouse fibroblasts (AID 2010); format: functional;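 note: cells exposed to compound for about 90 hours before reading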
[5] = inhibitors of Trypanosoma cruzi host-cell infection, confirmation, beta-gal luminescence, NIH3T3 host cells (AID 2630); format: functional, cell-based; conditions: Mus musculus
[6] = T. cruzi growth inhibition in host cells, dose response, cell-based, plate reader, dry powder, set 2 (AID 652275); format: functional
[7] = T. cruzi intracellular amastigote growth inhibition, dose response, imaging, CA-I/72 strain, bovine embryo skeletal muscle, dry powder (AID 651885); format: functional, cell-based
cells [8] = test: cells
Large T antigen = Large T antigen (Simian virus 40, UniProt P03070); format: functional, Betapolyomavirus macacae;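 note: Confirmatory-stage PubChem screen for compounds that inhibit SV40 T antigen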
Chain of Large T antigen (P03070 whole entry): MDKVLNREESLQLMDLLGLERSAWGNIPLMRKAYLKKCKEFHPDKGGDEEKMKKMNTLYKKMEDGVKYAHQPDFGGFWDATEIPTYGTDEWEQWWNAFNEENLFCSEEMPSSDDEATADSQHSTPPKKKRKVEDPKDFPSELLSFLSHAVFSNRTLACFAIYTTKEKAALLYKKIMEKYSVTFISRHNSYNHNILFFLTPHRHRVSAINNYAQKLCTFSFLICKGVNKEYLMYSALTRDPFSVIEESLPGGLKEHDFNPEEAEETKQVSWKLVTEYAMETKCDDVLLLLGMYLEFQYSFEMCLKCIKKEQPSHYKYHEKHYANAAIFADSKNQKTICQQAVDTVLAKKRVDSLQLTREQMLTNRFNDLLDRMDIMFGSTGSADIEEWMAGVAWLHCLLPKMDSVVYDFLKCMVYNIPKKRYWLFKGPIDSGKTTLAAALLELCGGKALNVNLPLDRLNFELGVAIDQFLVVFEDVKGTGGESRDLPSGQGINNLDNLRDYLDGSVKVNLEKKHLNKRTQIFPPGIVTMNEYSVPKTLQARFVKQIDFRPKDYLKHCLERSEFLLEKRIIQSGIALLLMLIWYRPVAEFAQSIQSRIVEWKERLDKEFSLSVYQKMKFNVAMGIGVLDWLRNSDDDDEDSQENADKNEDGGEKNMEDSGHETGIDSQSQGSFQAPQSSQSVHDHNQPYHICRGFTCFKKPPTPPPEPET

[9] = biological target: T1, Mannose-6-phosphate isomerase (Homo sapiens, UniProt P34949); test: inhibitors of human PMI, primary screen, biochemical, fluorescence intensity, coupled assay (AID 1209)
T1 sequence (P34949 whole entry): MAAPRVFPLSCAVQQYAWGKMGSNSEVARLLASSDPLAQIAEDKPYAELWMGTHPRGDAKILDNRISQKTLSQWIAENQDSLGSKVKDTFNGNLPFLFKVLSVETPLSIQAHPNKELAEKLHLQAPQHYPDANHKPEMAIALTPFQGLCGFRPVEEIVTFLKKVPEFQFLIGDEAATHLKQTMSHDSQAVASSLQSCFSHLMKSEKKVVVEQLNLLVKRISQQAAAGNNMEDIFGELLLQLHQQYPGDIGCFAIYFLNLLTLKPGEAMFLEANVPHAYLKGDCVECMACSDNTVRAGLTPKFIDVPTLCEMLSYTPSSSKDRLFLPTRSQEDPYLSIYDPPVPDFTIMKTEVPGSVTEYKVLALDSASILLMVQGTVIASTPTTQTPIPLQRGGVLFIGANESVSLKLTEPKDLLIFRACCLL

[10] = biological target: T1, Mannose-6-phosphate isomerase; test: human PMI inhibitors, high substrate, primary screen, biochemical, fluorescence intensity, high mannose 6-phosphate (AID 1220)
[11] = biological target: FAD-linked sulfhydryl oxidase ALR (Homo sapiens, UniProt P55789); test: inhibitors of human ALR sulfhydryl oxidase, dose response, biochemical, H2O2 detection, luminescence, cherry-pick (AID 493248)
Chain of FAD-linked sulfhydryl oxidase ALR (P55789 whole entry): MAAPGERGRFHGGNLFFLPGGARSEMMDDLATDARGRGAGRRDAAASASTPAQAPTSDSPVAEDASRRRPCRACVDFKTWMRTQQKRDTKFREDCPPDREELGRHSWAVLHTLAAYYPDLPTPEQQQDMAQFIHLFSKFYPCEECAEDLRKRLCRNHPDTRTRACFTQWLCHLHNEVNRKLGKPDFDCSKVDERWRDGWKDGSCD

[12] = biological target: Induced myeloid leukemia cell differentiation protein Mcl-1 (Homo sapiens, UniProt Q07820); test: MCL1-BIM BH3 interaction inhibitors, dose response, biochemical, fluorescence polarization, BIM-BH3 peptide, 1536-well (AID 2217)
Chain of Induced myeloid leukemia cell differentiation protein Mcl-1 (Q07820 whole entry): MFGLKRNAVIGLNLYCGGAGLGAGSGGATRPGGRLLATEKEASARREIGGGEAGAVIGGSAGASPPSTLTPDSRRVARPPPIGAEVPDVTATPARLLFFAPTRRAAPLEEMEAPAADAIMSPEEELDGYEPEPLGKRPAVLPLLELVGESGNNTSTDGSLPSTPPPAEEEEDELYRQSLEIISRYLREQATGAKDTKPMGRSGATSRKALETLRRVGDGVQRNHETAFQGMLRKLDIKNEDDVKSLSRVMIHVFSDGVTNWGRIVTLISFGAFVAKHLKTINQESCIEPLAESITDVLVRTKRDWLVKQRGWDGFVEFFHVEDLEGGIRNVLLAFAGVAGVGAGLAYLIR

Bcl-2-like protein 1 = Bcl-2-like protein 1 (Homo sapiens, UniProt Q07817); test: BCL-XL inhibitors, dose response, selectivity assay for MCL1 inhibitor project, biochemical, fluorescence polarization, 1536-well (AID 2218)
Chain of Bcl-2-like protein 1 (Q07817 whole entry): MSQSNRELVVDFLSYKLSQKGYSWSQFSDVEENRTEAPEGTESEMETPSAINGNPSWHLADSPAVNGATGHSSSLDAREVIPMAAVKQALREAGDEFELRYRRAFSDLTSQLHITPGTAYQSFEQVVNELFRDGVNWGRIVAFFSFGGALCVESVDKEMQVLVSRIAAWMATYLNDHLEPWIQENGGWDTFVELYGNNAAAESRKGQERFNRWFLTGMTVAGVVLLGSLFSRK

[13] = biological target: T2, Endoribonuclease toxin MazF (Escherichia coli K-12, UniProt P0AE70); test: MazF toxin RNase activators, dose response, biochemical, fluorescence, single-stranded RNA substrate, uHTS hits (AID 588481); format: functional
T2 sequence (P0AE70 whole entry): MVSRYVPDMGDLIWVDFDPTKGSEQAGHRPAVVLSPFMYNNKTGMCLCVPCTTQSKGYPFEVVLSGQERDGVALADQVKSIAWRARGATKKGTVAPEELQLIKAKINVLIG

[14] = biological target: T2, Endoribonuclease toxin MazF; test: fluorescent RNA oligo signal without MazF, dose response, counter-screen for MazEF activator project, biochemical, fluorescence, single-stranded RNase substrate (AID 588502); format: functional
Albumin = Albumin (Bos taurus, UniProt P02769); test: Counterscreen for inhibitors of T-cell receptor (TCR)-CD3 interaction: Fluorescence-based biochemical high throughput dose response assay to identify inhibitors of T-cell receptor (TCR)-CD3 interaction using a TAMRA-labeled BSA probe.; format: functional
Chain of Albumin (P02769 whole entry): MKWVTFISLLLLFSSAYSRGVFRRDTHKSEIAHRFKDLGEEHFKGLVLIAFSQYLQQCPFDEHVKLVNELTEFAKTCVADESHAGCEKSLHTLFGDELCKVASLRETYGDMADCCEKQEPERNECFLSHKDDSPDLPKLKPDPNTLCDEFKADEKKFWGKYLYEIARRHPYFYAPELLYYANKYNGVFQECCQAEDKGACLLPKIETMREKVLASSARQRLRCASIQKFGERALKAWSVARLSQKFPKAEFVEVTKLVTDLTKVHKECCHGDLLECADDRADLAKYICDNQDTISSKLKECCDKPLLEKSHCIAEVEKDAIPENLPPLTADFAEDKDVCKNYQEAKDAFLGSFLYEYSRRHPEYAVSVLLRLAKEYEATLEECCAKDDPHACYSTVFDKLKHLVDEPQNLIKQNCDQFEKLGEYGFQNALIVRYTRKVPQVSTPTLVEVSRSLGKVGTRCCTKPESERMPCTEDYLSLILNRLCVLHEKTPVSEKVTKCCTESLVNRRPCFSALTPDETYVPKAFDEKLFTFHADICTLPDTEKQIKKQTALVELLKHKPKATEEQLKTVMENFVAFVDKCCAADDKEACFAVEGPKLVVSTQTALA

[15] = biological target: Ubiquitin carboxyl-terminal hydrolase BAP1 (Homo sapiens, UniProt Q92560); test: BAP1 deubiquitinase inhibitors, dose response, biochemical (AID 714); format: functional
Chain of Ubiquitin carboxyl-terminal hydrolase BAP1 (Q92560 whole entry): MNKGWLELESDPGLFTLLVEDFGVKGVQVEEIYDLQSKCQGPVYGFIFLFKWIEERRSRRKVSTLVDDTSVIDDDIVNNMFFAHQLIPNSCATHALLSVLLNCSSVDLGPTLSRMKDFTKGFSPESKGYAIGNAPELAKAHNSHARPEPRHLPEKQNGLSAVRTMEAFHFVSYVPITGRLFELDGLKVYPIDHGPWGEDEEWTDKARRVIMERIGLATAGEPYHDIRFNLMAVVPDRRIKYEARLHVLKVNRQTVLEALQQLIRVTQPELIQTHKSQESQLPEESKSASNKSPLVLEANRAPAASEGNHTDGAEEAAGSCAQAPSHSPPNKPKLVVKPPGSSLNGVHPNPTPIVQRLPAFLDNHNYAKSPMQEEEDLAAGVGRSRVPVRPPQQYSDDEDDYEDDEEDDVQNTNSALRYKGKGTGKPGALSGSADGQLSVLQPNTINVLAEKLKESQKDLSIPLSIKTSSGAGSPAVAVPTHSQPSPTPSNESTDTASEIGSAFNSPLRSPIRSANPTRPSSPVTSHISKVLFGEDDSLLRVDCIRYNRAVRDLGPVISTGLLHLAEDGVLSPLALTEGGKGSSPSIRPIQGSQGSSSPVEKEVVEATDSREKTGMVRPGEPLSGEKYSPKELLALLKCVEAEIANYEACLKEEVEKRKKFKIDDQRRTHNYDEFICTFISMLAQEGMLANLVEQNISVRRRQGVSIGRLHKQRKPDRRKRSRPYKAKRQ

[16] = biological target: Sphingosine 1-phosphate receptor 2 (Homo sapiens, UniProt O95136); test: Dose Response Cell Based Assay for Agonists of the S1P2 Receptor of Purchased Analogues. [Related pubchem assays: 729, 843, 854, 736 ]; format: functional
Chain of Sphingosine 1-phosphate receptor 2 (O95136 whole entry): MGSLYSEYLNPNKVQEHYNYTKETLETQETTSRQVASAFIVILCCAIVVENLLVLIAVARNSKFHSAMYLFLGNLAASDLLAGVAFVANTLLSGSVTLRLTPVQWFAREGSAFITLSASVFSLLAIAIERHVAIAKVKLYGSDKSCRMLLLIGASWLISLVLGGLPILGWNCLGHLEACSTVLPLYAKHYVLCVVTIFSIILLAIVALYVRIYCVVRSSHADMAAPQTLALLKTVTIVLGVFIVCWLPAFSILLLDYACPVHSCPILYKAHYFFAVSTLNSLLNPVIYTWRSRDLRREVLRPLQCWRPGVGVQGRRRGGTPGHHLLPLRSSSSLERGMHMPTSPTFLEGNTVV

[17] = M. tuberculosis growth inhibition, HTS (AID 449762); format: functional
[18] = biological target: T3, Oxysterols receptor LXR-beta (Homo sapiens, UniProt P55055); format: functional, cell-based
T3 sequence (P55055 whole entry): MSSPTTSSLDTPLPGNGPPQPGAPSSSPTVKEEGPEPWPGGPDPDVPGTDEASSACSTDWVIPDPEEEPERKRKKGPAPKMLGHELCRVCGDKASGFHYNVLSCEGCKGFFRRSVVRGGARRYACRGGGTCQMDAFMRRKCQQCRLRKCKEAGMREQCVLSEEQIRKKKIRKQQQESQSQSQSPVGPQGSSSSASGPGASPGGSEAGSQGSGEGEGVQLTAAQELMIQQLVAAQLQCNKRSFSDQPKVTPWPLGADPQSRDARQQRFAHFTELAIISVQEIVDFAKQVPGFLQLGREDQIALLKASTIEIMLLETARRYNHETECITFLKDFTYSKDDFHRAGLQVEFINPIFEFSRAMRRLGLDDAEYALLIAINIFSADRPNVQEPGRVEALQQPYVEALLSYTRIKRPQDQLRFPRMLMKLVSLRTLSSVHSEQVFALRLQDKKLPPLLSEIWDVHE

[19] = biological target: T3, Oxysterols receptor LXR-beta; format: functional, cell-based; remark: listed apart in the source
[20] = HeLa 2N DNA content increase, dose response, cell-based, IC50 (AID 1117349); format: functional
[21] = HeLa 4N DNA content increase, dose response, cell-based, IC50 (AID 1117351); format: functional
cells [22] = test: cells; remark: listed apart in the source

SMILES: CCCn1ncc(CN2CCCC(C(=O)c3cccc(OC(C)C)c3)C2)c1C (stereo not given)
- EC50 [1]: 0.047 µM (active)
- EC50 [2]: < 0.1 µM (active)
- EC50 [3]: > 195 µM (not active)
- EC50 [4]: > 60 µM (not active)
- EC50 [5]: 0.047 µM (active)
- AC50 [6]: 0.0589 µM (active)
- IC50 [7]: > 20 µM (inactive)
- EC50 (cells [8]): 0.054 µM (active)

SMILES: CCn1c(=O)n(CC)c2cc(N)ccc21
- IC50 (Large T antigen): 14 µM (active)
- IC50 [9]: > 50 µM (not active)
- IC50 [10]: > 50 µM (not active)
- AC50 [11]: 0.754 µM (active)

SMILES: O=c1cc(-c2ccc(O)c(O)c2)oc2c1ccc1ccccc12
- IC50 [12]: 23.8 µM (not active)
- IC50 (Bcl-2-like protein 1): > 109 µM (not active)
- EC50 [13]: > 99 µM (inactive)
- EC50 [14]: > 99 µM (inactive)
- IC50 (Albumin): > 94.1 µM (inactive)

SMILES: O=C(CSc1nc2c(c(=O)n1-c1ccc(Cl)cc1)SCC2)Nc1ccc2c(c1)OCCO2
- IC50 [15]: 38.6 µM (not active)

SMILES: Cc1cc(C(=O)CN(C)CC(=O)NC(C)(C)C)c(C)n1Cc1ccccc1
- EC50 [16]: > 30 µM (not active)

SMILES: CCCNC(=O)NC(=O)COc1ccc2oc3ccccc3c2c1
- IC50 [17]: > 100 µM (active)

SMILES: O=c1[nH]c(=O)n([C@H]2C[C@H](O)[C@@H](CO)O2)cc1Br [BROXURIDINE]
- EC50 [18]: > 67.5 µM (inactive)
- EC50 [19]: > 67.6 µM (inactive)
- IC50 [20]: > 10 µM (inactive)
- IC50 [21]: > 10 µM (inactive)
- EC50 (cells [22]): > 67.5 µM (inactive)
